Counter-ions that a name gives are not always drawn. Like-named read-outs stand apart in the source and are kept apart here.
Tests used:
[1] = biological target: T1, human, citrated, platelet-rich plasma (Homo sapiens, UniProt P05106+P08514); assay: Test (a): inhibition of ADP stimulated platelet aggregation (Born); assay type: cell-based; conditions: ADP induced aggregation of human platelet-rich plasma
T1 construct: aggregating human, citrated, platelet-rich plasma; endogenous in cells; host or cells: human platelets in citrated platelet-rich plasma
T1 sequence (P08514 32-887 limits assumed): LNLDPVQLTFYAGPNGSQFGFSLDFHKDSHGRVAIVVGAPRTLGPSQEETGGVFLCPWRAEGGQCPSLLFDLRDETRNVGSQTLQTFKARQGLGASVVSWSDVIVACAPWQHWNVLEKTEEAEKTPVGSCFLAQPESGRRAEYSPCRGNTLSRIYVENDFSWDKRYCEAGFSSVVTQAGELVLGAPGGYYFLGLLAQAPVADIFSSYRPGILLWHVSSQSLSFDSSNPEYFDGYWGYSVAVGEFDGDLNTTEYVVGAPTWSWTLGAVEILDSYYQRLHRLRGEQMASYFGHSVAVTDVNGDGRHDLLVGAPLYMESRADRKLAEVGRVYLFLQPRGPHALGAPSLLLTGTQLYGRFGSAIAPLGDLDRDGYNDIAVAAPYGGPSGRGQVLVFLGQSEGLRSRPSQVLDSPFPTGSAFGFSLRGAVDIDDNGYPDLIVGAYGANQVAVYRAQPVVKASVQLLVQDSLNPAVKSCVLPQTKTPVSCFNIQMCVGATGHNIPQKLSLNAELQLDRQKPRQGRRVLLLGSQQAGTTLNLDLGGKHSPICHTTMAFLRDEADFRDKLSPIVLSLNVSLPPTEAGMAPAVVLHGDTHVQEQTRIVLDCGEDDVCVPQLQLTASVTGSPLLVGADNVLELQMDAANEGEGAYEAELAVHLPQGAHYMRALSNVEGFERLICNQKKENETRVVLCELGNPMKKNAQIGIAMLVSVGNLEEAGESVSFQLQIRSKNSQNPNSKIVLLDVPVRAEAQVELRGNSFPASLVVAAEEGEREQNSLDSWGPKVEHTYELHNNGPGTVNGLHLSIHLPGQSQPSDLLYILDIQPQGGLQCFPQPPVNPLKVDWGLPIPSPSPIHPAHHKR
T1 sequence (P08514 891-1039 limits assumed): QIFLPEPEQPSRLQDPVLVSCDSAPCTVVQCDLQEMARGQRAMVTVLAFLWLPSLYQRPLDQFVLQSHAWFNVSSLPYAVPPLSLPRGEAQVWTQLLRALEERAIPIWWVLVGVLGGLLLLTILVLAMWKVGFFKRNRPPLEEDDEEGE
T1 sequence (P05106 27-788): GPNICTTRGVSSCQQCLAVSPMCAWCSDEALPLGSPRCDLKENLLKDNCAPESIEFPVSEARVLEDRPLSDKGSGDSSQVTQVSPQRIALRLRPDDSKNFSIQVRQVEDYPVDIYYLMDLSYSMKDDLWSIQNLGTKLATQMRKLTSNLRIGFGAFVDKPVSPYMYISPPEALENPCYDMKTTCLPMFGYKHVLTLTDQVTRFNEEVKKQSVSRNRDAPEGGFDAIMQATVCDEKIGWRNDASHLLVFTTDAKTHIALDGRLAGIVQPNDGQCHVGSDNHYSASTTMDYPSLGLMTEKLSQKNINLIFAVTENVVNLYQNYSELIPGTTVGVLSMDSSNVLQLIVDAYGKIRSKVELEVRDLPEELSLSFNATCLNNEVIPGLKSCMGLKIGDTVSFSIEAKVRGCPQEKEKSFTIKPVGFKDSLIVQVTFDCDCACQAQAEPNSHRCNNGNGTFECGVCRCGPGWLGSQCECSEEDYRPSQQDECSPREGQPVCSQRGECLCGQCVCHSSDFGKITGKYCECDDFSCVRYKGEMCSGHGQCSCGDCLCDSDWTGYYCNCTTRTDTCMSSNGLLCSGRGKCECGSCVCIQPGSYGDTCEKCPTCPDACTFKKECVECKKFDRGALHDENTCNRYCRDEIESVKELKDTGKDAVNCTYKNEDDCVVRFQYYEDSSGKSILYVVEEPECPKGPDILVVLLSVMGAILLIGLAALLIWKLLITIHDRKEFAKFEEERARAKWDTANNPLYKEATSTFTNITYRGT
How it was run: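 ADP added to human citrated platelet-rich plasma to build aggregation dose-response curves, repeated with increasing test compound (generally 10-^5 M to 10-^10 M). pA2 derived from the 50% response value for ADP with vs. without compound, averaged over several concentrations.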

[2] = biological target: T2, purified human platelet fibrinogen receptor (GPIIb/IIIa) (Homo sapiens, UniProt P05106+P08514); assay: Test (b): GPIIb/IIIa ELISA, inhibition of biotinylated fibrinogen binding; conditions: purified human platelet GPIIb/IIIa, ELISA
T2 construct: is isolated from human platelet lysates; from tissue
T2 sequence (P08514 32-887 limits assumed): as the sequence (P08514 32-887 limits assumed) above
T2 sequence (P08514 891-1039 limits assumed): as the sequence (P08514 891-1039 limits assumed) above
T2 sequence (P05106 27-788): as the sequence (P05106 27-788) above
How it was run: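 GPIIb/IIIa affinity-purified from human platelet lysates was coated on plates, blocked, then incubated 2 h at 30 °C with biotinylated fibrinogen ([…]) plus compound. Bound fibrinogen detected via streptavidin/biotinylated HRP and TMB, OD at 650 nm; pIC50 for 50% binding inhibition.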

[3] = read-out: Test (a): pA2 value indicating potency of platelet aggregation inhibition (converted)
[4] = read-out: Test (b): pIC50 (-log(IC50)), 50% inhibition of biotinylated fibrinogen binding to GPIIb/IIIa (converted)

| Kb [1, 3] [nM] | IC50 [2, 4] [nM] | SMILES | other results |
| --- | --- | --- | --- |
| 398 | 631 | COC(=O)COc1ccc(CCN2CCN(c3ccncc3)CC2)cc1 [Example 147, Methyl 4-[2-[4-(4-pyridyl)piperazin-1-yl]ethyl]phenoxyacetate] |  |
|  |  | O=C(O)COc1ccc(CCN2CCN(c3ccncc3)CC2)cc1 [Example 148, 4-[2-[4-(4-Pyridyl)piperazin-1-yl]ethyl]phenoxyacetate acid dihydrochloride] | Test (a): pA2 value indicating potency of platelet aggregation inhibition [1]: 7.3; Test (b): pIC50 (-log(IC50)), 50% inhibition of biotinylated fibrinogen binding to GPIIb/IIIa [2]: 7.5 |
| 20000 | 20000 | CC(C)(C)OC(=O)COc1ccc(CC(=O)N2CCN(c3ccncc3)CC2)cc1 [Example 149, Tertiary butyl 4-[2-[4-(4-pyridyl)piperazin-1-yl]carbonylmethyl]-phenoxyacetate] |  |
| 316 | 316 | O=C(O)COc1ccc(CC(=O)N2CCN(c3ccncc3)CC2)cc1 [Example 150, 4-[2-[4-(4-Pyridyl)piperazin-1-yl]carbonylmethyl]phenoxyacetic acid, dihydrochloride] |  |
| 631 | 3980 | COC(=O)COc1ccc(C(=O)CN2CCN(c3ccnc(C)c3)CC2)cc1 [Example 151, Methyl 4-[2-[4-(2-methylpyrid-4-yl)piperazin-1-yl]acetyl]phenoxyacetate] |  |
| 100 | 100 | Cc1cc(N2CCN(CC(=O)c3ccc(OCC(=O)O)cc3)CC2)ccn1 [Example 152, 4-[2-[4-(2-Methylpyrid-4-yl)piperazin-1-yl]acetyl]phenoxyacetic acid, dihydrobromide] |  |
| 15800 | 50100 | COC(=O)COc1ccc(C(=O)CN2CCN(c3cc(C)nc(C)c3)CC2)cc1 [Example 153, Methyl [2-[4-(2,6-dimethylpyrid-4-yl)piperazin-1-yl]acetyl]phenoxyacetate, hydrobromide] |  |
| 10000 | 2510 | Cc1cc(N2CCN(CC(=O)c3ccc(OCC(=O)O)cc3)CC2)cc(C)n1 [Example 154, 4-[2-[4-(2,6-Dimethylpyrid-4-yl)piperazin-1-yl]actyl]phenoxyacetic acid, dihydrobromide] |  |
| 3160 | > 100000 | COC(=O)COc1ccc(OC2CCN(c3ccncc3)CC2)cc1 [Example 155, Methyl 4-[1-(4-pyridyl)piperidin-4-yl]oxyphenoxyacetate] |  |
| 20000 | 1580 | O=C(O)COc1ccc(OC2CCN(c3ccncc3)CC2)cc1 [Example 156, 4-[1-(4-Pyridyl)piperidin-4-yl]oxyphenoxyacetic acid] |  |
| 316 | 79.4 | COC(=O)COc1ccc(OCC2CCN(c3ccncc3)CC2)cc1 [Example 157, Methyl 4-[1-(4-pyridyl)piperidin-4-yl]methoxyphenoxyacetate] |  |
| 631 | 100 | O=C(O)COc1ccc(OCC2CCN(c3ccncc3)CC2)cc1 [Example 158, 4-[1-(4-Pyridyl)piperidin-4-yl]methoxyphenoxyacetic acid.] |  |
| 501 | 2000 | COC(=O)COc1ccc(OCCC2CCN(c3ccncc3)CC2)cc1 [Example 159, Methyl 4-[2-[1-(4-pyridyl)piperidin-4-yl]ethoxy]phenoxyacetate] |  |
| 794 | 15.8 | O=C(O)COc1ccc(OCCC2CCN(c3ccncc3)CC2)cc1 [Example 160, 4-[2-[1-(4-Pyridyl)piperidin-4-yl]ethoxy]phenoxyacetic acid] |  |
| 12600 | 50100 | COC(=O)CCc1ccc(OCC2CCN(c3ccncc3)CC2)cc1 [Example 161, Methyl 3-[4-[1-(4-pyridyl)piperidin-4-yl]methoxyphenyl]propionate] |  |
| 20000 | 631 | O=C(O)CCc1ccc(OCC2CCN(c3ccncc3)CC2)cc1 [Example 162, 3-[4-[1-(4-Pyridyl)piperidin-4-yl]methoxyphenyl]propionic acid] |  |
| 398 | 251 | COC(=O)COc1ccc(NC(=O)C2CCN(c3ccncc3)CC2)cc1 [Example 163, Methyl 4-[[1-(4-pyridyl)piperidin-4-yl]carboxamido]phenoxyacetate, hydrochloride] |  |
| 7.94 | 39.8 to 63.1 | O=C(O)COc1ccc(NC(=O)C2CCN(c3ccncc3)CC2)cc1 [Example 164] |  |
| 1260 | 20000 | COC(=O)COc1ccc(NC(=O)CC2CCN(c3ccncc3)CC2)cc1 [Example 165] |  |
| 1580 | 316 | O=C(O)COc1ccc(NC(=O)CC2CCN(c3ccncc3)CC2)cc1 [Example 166, 4-[2-[1-(4-Pyridyl)piperidin-4-yl]acetamido]phenoxyacetic acid dihydrochloride] |  |

| Kb [1, 3] [nM] | IC50 [2, 4] [nM] | SMILES | other results |
| --- | --- | --- | --- |
| 251 | 200 | O=C(O)COc1ccc(C(=O)NC2CCN(c3ccncc3)CC2)cc1 [Example 167, 4-[[1-(4-Pyridyl)piperidin-4-yl]aminocarbonyl]phenoxyacetic acid dihydrochloride] |  |
| 794 | 398 | O=C(O)COc1ccc(C(=O)NCC2CCN(c3ccncc3)CC2)cc1 [Example 168] |  |
| 39800 | 10000 | O=C(O)Cc1ccc(NC(=O)C2CCN(c3ccncc3)CC2)cc1 [Example 169] |  |
| 15800 | > 100000 | CCCCS(=O)(=O)NCc1ccc(NC(=O)C2CCN(c3ccncc3)CC2)cc1 [Example 170, N-[4-[4-[1-(4-Pyridyl)piperidin-4-yl]carboxamidophenyl]-methyl]-1-butanesulphonamide] |  |
| 6310 | > 100000 | Cc1ccc(S(=O)(=O)NCc2ccc(NC(=O)C3CCN(c4ccncc4)CC3)cc2)cc1 [Example 171, N-[4[4-[1-(4-Pyridyl)piperidin-4yl]carboxyamidophenyl]methyl]-4-methylphenylsulphonamide] |  |
| 6310 | 50100 | COC(=O)CNc1ccc(OC(=O)CC2CCN(c3ccncc3)CC2)cc1 [Example 172, 4-Methyloxycarbonylmethylamiophenyl [1-(4-pyridyl)piperidin4-yl]acetate] |  |
| 1260 | 200 | COC(=O)COc1ccc(C(=O)CC2CCN(c3ccncc3)CC2)cc1 [Example 173, Methyl 4-[2-[1-(4-pyridyl)piperidin-4-yl]acetyl]phenoxyacetate] |  |
| 158 to 398 | 5.01 to 10 | O=C(O)COc1ccc(C(=O)CC2CCN(c3ccncc3)CC2)cc1 [Example 174, 4-[2-[1-(4Pyridyl)piperidin-4-yl]acetyl]phenoxyacetic acid hydrochloride] |  |
| 1260 | 631 | COC(=O)COc1ccc(C(=O)C(C)(C)N2CCN(c3ccncc3)CC2)cc1 [Example 175, Methyl 4-[2-[4-(4-pyridyl)piperazin-1yl]-2,2-dimethylacetyl]-phenoxyacetate] |  |
| 200 | 10 | CC(C)(C(=O)c1ccc(OCC(=O)O)cc1)N1CCN(c2ccncc2)CC1 [Example 176, 4-[2-[4-(4-Pyridyl)piperazin-1-yl]-2,2-dimethylacetyl]phenoxyacetic acid] |  |
| 3160 | 1000 | COC(=O)CCCc1ccc(CN2CCN(c3ccncc3)CC2)cc1 [Example 178, Methyl 4-[4-[4-(4-pyridyl)piperazin-1-yl]methylphenyl]butyrate] |  |
| 15800 | 3980 | COC(=O)CCCCc1ccc(CN2CCN(c3ccncc3)CC2)cc1 [Example 179, Methyl 5-[4-[4-(4-pyridyl)piperazin-1-yl]methylphenyl]pentanoate] |  |
| 7940 | 20000 | CS(=O)(=O)NCc1ccc(NC(=O)C2CCN(c3ccncc3)CC2)cc1 [Example 182] |  |
| 31600 | > 100000 | CS(=O)(=O)NCCc1ccc(NC(=O)C2CCN(c3ccncc3)CC2)cc1 [Example 183, N-[2-[4-[1-(4-Pyridyl)piperidin-4-yl]carboxamidophenyl]ethyl]methanesulphonamide] |  |
| 5010 | > 100000 | Cc1ccc(S(=O)(=O)NCCc2ccc(NC(=O)C3CCN(c4ccncc4)CC3)cc2)cc1 [Example 184, N-[2-[4-[1-(4-Pyridyl)piperidin-4-yl]carboxamidophenyl]ethyl]-4-methylphenylsulphonamide] |  |
| 3980 | 15800 | CCCCS(=O)(=O)NCc1ccc(CCN2CCN(c3ccncc3)CC2)cc1 [Example 185, N-[4-[2-[4-(4-Pyridyl)piperazin-1-yl]ethyl]phenyl]methyl-1-butanesulphonamide] |  |
| 5010 | 1260 | Cc1ccc(S(=O)(=O)NCc2ccc(CCN3CCN(c4ccncc4)CC3)cc2)cc1 [Example 186] |  |
|  |  | CN(CC(=O)O)C(=O)c1ccc(N2CCN(c3ccncc3)CC2)cc1 [Example 189, N-[4-[(4,4Pyridyl)piperazin-1-yl]benzoyl]-N-methylglycine, trifluoroacetate] | Kb ([1]; Test (a): pA2 value indicating potency of platelet aggregation inhibition): 1260 nM; IC50 ([2]; Test (b): pIC50 (-log(IC50)), 50% inhibition of biotinylated fibrinogen binding to GPIIb/IIIa): 316 nM |
| 63100 | 20000 | COC(=O)[C@H](Cc1ccccc1)NC(=O)c1ccc(N2CCN(c3ccncc3)CC2)cc1 [Example 190, N[4-[(4-Pyridyl)piperazin-1-yl]benzoyl]-L-phenylalanine, methyl ester] |  |
| > 100000 | 3980 | O=C(N[C@@H](Cc1ccccc1)C(=O)O)c1ccc(N2CCN(c3ccncc3)CC2)cc1 [Example 191] |  |
